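Test compounds were applied to cells in 96-well plates for 48 hours at 5 doses. The concentration for 50% growth inhibition is given as GI50.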 Activity calls are given as the source filed them. Rule as the data show it: active = GI50 up to about 1.1 µM and inactive = higher.
Assays:
Assay in all cases: growth of human tumour cells (NCI), 48 h
[1] = tested on: SNB-19
[2] = tested on: SN12C
[3] = tested on: CAKI-1
[4] = tested on: 786-0
[5] = tested on: MCF7
[6] = tested on: CCRF-CEM
[7] = tested on: MDA-MB-231
[8] = tested on: HOP-92
[9] = tested on: NCI-H226
[10] = tested on: K562
[11] = tested on: HOP-62
[12] = tested on: HCT-15
[13] = tested on: EKVX
[14] = tested on: LOX IMVI
[15] = tested on: U-251
[16] = tested on: SF-539
[17] = tested on: COLO 205
[18] = tested on: UACC-62
[19] = tested on: OVCAR-4
[20] = tested on: UO-31
[21] = tested on: M14
[22] = tested on: MOLT-4
[23] = tested on: SK-MEL-5
[24] = tested on: TK-10
[25] = tested on: KM12
[26] = tested on: RXF 393
[27] = tested on: PC-3
[28] = tested on: UACC-257
[29] = tested on: RPMI-8226
[30] = tested on: SR
[31] = tested on: OVCAR-3
[32] = tested on: OVCAR-5
[33] = tested on: MDA-MB-435
[34] = tested on: SK-OV-3
[35] = tested on: MDA-N
[36] = tested on: A549
[37] = tested on: SF-268
[38] = tested on: BT-549
[39] = tested on: NCI-H460
[40] = tested on: SF-295
[41] = tested on: SK-MEL-2
[42] = tested on: OVCAR-8
[43] = tested on: Malme-3M
[44] = tested on: DU-145
[45] = tested on: SW-620
[46] = tested on: NCI-H522
[47] = tested on: ACHN
[48] = tested on: Hs-578T
[49] = tested on: NCI-H23
[50] = tested on: A498
[51] = tested on: SNB-75
[52] = tested on: T47D
[53] = tested on: IGROV-1
[54] = tested on: HCT-116
[55] = tested on: SK-MEL-28
[56] = tested on: NCI/ADR-RES
[57] = tested on: HCC 2998
[58] = tested on: HT-29

## CC(=O)N(O)[C@@H]1CC[C@H](n2cnc3c(N)ncnc32)C1
[1]
  GI50: > 100 µM (inactive)
[2]
  GI50: > 100 µM (inactive)
[3]
  GI50: > 100 µM (inactive)
[4]
  GI50: > 100 µM (inactive)
[5]
  GI50: > 100 µM (inactive)
[6]
  GI50: > 100 µM (inactive)
[7]
  GI50: > 100 µM (inactive)
[8]
  GI50: > 100 µM (inactive)
[9]
  GI50: > 100 µM (inactive)
[10]
  GI50: > 100 µM (inactive)
[11]
  GI50: > 100 µM (inactive)
[12]
  GI50: > 100 µM
[13]
  GI50: > 100 µM (inactive)
[14]
  GI50: > 100 µM (inactive)
[15]
  GI50: > 100 µM (inactive)
[16]
  GI50: > 100 µM (inactive)
[17]
  GI50: > 100 µM (inactive)
[18]
  GI50: > 100 µM (inactive)
[19]
  GI50: > 100 µM (inactive)
[20]
  GI50: > 100 µM (inactive)
[21]
  GI50: > 100 µM (inactive)
[22]
  GI50: > 100 µM (inactive)
[23]
  GI50: > 100 µM (inactive)
[24]
  GI50: > 100 µM (inactive)
[25]
  GI50: > 100 µM (inactive)
[26]
  GI50: > 100 µM (inactive)
[27]
  GI50: > 100 µM (inactive)
[28]
  GI50: > 100 µM (inactive)
[29]
  GI50: > 100 µM (inactive)
[30]
  GI50: > 100 µM (inactive)
[31]
  GI50: > 100 µM (inactive)
[32]
  GI50: > 100 µM (inactive)
[33]
  GI50: > 100 µM (inactive)
[34]
  GI50: > 100 µM (inactive)
[35]
  GI50: > 100 µM (inactive)
[36]
  GI50: > 100 µM (inactive)
[37]
  GI50: > 100 µM (inactive)
[38]
  GI50: > 100 µM (inactive)
[39]
  GI50: > 100 µM (inactive)
[40]
  GI50: > 100 µM (inactive)
[41]
  GI50: > 100 µM (inactive)
[42]
  GI50: > 100 µM (inactive)
[43]
  GI50: > 100 µM (inactive)
[44]
  GI50: > 100 µM (inactive)
[45]
  GI50: > 100 µM (inactive)
[46]
  GI50: > 100 µM (inactive)
[47]
  GI50: > 100 µM (inactive)
[48]
  GI50: > 100 µM (inactive)
[49]
  GI50: > 100 µM (inactive)
[50]
  GI50: > 100 µM (inactive)
[51]
  GI50: > 100 µM (inactive)
[52]
  GI50: > 100 µM (inactive)
[53]
  GI50: > 100 µM (inactive)
[54]
  GI50: > 100 µM (inactive)
[55]
  GI50: > 100 µM (inactive)
[56]
  GI50: > 100 µM (inactive)
[57]
  GI50: > 100 µM (inactive)

## COC(COC(=O)N1CCN(C=O)CC1)C1=C(N2CC2)C(=O)C(C)=C(N2CC2)C1=O (centres undefined)
[1]
  GI50: 0.437 µM (active)
[2]
  GI50: 0.0336 µM (active)
[3]
  GI50: 0.12 µM (active)
[4]
  GI50: 0.0644 µM (active)
[58]
  GI50: 0.189 µM (active)
[5]
  GI50: 0.0313 µM (active)
[6]
  GI50: 0.13 µM (active)
[7]
  GI50: 2.29 µM (inactive)
[8]
  GI50: 0.198 µM (active)
[9]
  GI50: 0.582 µM (active)
[10]
  GI50: 0.462 µM (active)
[11]
  GI50: 0.191 µM (active)
[12]
  GI50: 1.73 µM
[13]
  GI50: 5.08 µM (inactive)
[14]
  GI50: 0.0664 µM (active)
[15]
  GI50: 0.219 µM (active)
[16]
  GI50: 0.0632 µM (active)
[17]
  GI50: 0.272 µM (active)
[18]
  GI50: 0.169 µM (active)
[19]
  GI50: 0.585 µM (active)
[20]
  GI50: 0.486 µM (active)
[21]
  GI50: 0.202 µM (active)
[22]
  GI50: 0.138 µM (active)
[23]
  GI50: 0.172 µM (active)
[24]
  GI50: 0.579 µM (active)
[25]
  GI50: 0.551 µM (active)
[26]
  GI50: 0.228 µM (active)
[27]
  GI50: 0.461 µM (active)
[28]
  GI50: 0.309 µM (active)
[29]
  GI50: 0.362 µM (active)
[30]
  GI50: < 0.01 µM (active)
[31]
  GI50: 0.656 µM (active)
[32]
  GI50: 2.56 µM (inactive)
[33]
  GI50: 0.424 µM (active)
[34]
  GI50: 0.195 µM (active)
[35]
  GI50: 0.248 µM (active)
[36]
  GI50: 0.167 µM (active)
[37]
  GI50: 0.12 µM (active)
[38]
  GI50: 0.455 µM (active)
[39]
  GI50: < 0.0278 µM (active)
[40]
  GI50: 1.22 µM (inactive)
[41]
  GI50: 0.705 µM (active)
[42]
  GI50: 0.17 µM (active)
[43]
  GI50: 0.336 µM (active)
[44]
  GI50: 0.0472 µM (active)
[45]
  GI50: 0.141 µM (active)
[46]
  GI50: 0.107 µM (active)
[47]
  GI50: < 0.0193 µM (active)
[48]
  GI50: 1.26 µM (inactive)
[49]
  GI50: 0.0675 µM (active)
[50]
  GI50: 1.51 µM (inactive)
[52]
  GI50: 0.257 µM (active)
[53]
  GI50: 0.271 µM (active)
[54]
  GI50: 0.157 µM (active)
[55]
  GI50: 1.27 µM (inactive)
[56]
  GI50: 5.57 µM (inactive)
[57]
  GI50: 21.2 µM (inactive)

— ChEMBL document CHEMBL1201862, “PubChem BioAssay data set” (2004)
